Results taken from patent US11026426B2, “Oxadiazole and phenol derivatives as antibacterial and/or herbicidal agents” (NORTHERN ILLINOIS RESEARCH FOUNDATION, priority 2017, dated 2021).
Where two headings read alike, the source gives them in different places.

How the values were obtained:
[1] = biological target: T1, Mycobacterium tuberculosis IspD (MtIspD) (Mycobacterium tuberculosis, UniProt P9WKG9); test: Thermal shift assay against MtIspD; format: binding
T1 sequence (P9WKG9 1-231): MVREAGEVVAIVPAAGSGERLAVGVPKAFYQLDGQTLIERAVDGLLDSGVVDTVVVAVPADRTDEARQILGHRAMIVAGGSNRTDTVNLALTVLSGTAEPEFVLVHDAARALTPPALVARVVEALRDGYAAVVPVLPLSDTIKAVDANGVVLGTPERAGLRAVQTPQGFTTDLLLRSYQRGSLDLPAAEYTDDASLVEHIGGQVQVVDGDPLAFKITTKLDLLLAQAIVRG

[2] = biological target: Lycopersicon esculentum IspE (LeIspE) (Solanum lycopersicum, UniProt P93841); test: Thermal shift assay against LeIspE; format: binding
Sequence of Lycopersicon esculentum IspE (LeIspE) (P93841 89-401): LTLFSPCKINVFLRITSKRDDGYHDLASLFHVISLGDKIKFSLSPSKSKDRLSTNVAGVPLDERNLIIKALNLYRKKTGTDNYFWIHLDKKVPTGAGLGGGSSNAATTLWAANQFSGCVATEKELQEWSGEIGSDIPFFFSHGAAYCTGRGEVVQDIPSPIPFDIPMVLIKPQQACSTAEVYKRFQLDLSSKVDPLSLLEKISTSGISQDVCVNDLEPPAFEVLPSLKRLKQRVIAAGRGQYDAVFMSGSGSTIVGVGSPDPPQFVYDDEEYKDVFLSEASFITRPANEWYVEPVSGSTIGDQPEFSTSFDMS

[3] = biological target: Mycobacterium paratuberculosis IspD (MpIspD) (Mycolicibacterium paratuberculosis, UniProt Q743W5); test: Thermal shift assay against MpIspD; format: binding
Sequence of Mycobacterium paratuberculosis IspD (MpIspD) (Q743W5 whole entry): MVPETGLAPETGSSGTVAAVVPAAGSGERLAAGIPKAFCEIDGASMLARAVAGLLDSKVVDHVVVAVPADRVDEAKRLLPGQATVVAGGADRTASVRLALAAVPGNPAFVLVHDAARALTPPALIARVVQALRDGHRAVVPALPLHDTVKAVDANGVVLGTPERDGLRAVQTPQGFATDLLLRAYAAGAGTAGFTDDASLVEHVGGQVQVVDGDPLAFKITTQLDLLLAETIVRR

lettuce seeds = test: Lettuce leaf assay; format: in vivo; set-up: key: 0 (no effect); 5(complete inhibition or bleaching); details: ranking 0-5
Method in brief: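 Qualitative assay: compounds in volatile organic solvent applied to filter paper in a petri dish, solvent evaporated, lettuce seeds and 5 mL water added to give test concentrations. Germination, root development and leaf bleaching scored days 3 and 4, ranked 0 (no effect) to 5 (complete inhibition or bleaching).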

AtIspD = AtIspD (Arabidopsis thaliana, UniProt P69834); test: University of Hamburg photometric enzymatic inhibition assay AtIspD; format: biochemical; details: read-out: AtIspD IC50
Sequence of AtIspD (P69834 62-302): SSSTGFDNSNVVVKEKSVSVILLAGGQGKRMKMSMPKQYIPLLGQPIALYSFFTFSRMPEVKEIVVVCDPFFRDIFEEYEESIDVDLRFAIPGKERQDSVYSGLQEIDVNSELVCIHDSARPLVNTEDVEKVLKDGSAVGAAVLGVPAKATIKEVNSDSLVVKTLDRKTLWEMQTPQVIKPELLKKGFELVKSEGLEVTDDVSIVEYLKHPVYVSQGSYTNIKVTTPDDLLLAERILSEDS
Method in brief: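 Coupled photometric assay: 2.4 mU AtIspD with 1 mM (2R,3S)-2,3-dihydroxy-4-oxopentyl phosphate, 2.1 mM CTP, excess IspE (0.4 U), ATP, pyruvate kinase/lactate dehydrogenase and 460 μM NADH. Run in 100 mM Tris-HCl pH 8.0, 10 mM MgCl2, 1 mM DTT, 1.1% DMSO at 27 °C, monitored photometrically.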

LeIspE = LeIspE (Solanum lycopersicum, UniProt P93841); test: University of Hamburg photometric enzymatic inhibition assay LeIspE; format: biochemical, Lycopersicon esculentum; details: read-out: LeIspE IC50
Sequence of LeIspE (P93841 89-401): as the sequence (P93841 89-401) above
Method in brief: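 Photometric coupled assay with pyruvate kinase/lactate dehydrogenase following NADH (460 μM). Mix: 100 mM Tris-HCl pH 8.0, 10 mM MgCl2, 1 mM DTT, 2.5 mM phosphoenolpyruvate, 2 mM ATP, 1 mM 4-diphosphocytidyl-2-C-methylerythritol, 1.1% DMSO, 2.4 mU IspE; incubated at 27° C.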

AtIspF = AtIspF (Arabidopsis thaliana, UniProt Q9CAK8); test: University of Hamburg photometric enzymatic inhibition assay AtIspF; format: biochemical; details: read-out: AtIspF IC50
Sequence of AtIspF (Q9CAK8 53-231): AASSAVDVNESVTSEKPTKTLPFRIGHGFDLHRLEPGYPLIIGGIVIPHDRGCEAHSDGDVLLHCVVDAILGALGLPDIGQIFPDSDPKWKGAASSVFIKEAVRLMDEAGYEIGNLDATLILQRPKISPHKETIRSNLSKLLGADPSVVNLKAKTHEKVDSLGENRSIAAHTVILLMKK
Method in brief: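 Coupled photometric assay (CMP kinase/pyruvate kinase/lactate dehydrogenase, NADH consumption) with 2.4 mU AtIspF and 1 mM 4-diphosphocytidyl-2C-methylerythritol 2-phosphate, 2 mM ATP, in 100 mM Tris-HCl pH 8.0, 10 mM MgCl2, 1.1% DMSO. Monitored at 27 °C.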

[4] = tested on: Burkholderia thailandensis; format: cell-based; details: preliminary screening, score 0-3
Mycobacterium smegmatis [5] = test: Antibacterial preliminary screening MS; format: cell-based; details: score 0-3; further: key: 0 represents no inhibition; 3 is comparable to commercial antibiotic control
Corynebacterium xerosis [6] = test: Antibacterial preliminary screening CX; format: cell-based; details: score 0-3; further: key: 0 represents no inhibition; 3 is comparable to commercial antibiotic control
[7] = tested on: Corynebacterium pseudodiphtheriae; test: Antibacterial preliminary screening CP; format: cell-based; details: score 0-3;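 further: 0 is no inhibition and 3 matches the commercial antibiotic control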
Escherichia coli [8] = test: Antibacterial preliminary screening EC; format: cell-based; details: score 0-3; further: key: 0 represents no inhibition; 3 is comparable to commercial antibiotic control
Klebsiella pneumonia [9] = test: Antibacterial preliminary screening KP; format: cell-based; details: score 0-3; further: key: 0 represents no inhibition; 3 is comparable to commercial antibiotic control
Micrococcus luteus [10] = test: Antibacterial preliminary screening ML; format: cell-based; details: score 0-3
Bacillus cereus [11] = test: Antibacterial preliminary screening BC; format: cell-based; details: score 0-3
Pseudomonas aeruginosa [12] = test: Antibacterial preliminary screening PA; format: cell-based; details: for PA score: score 0-3
[13] = biological target: IspD of Mycobacterium paratuburculosis (Mycolicibacterium paratuberculosis, UniProt Q743W5); test: STD-NMR fragment screening MpIspD; format: binding; details: Fragments of Life library screening
Sequence of IspD of Mycobacterium paratuburculosis (Q743W5 whole entry, the tested form may be a part): as the sequence (Q743W5 whole entry) above

[14] = tested on: IspE of Mycobacterium abscessus; test: STD-NMR fragment screening MaIspE; format: binding; details: Fragments of Life library screening
Ec IspE = Ec IspE (Escherichia coli, UniProt P62615); test: Kinase-Glo luminescent enzymatic assay Ec IspE; format: biochemical
Sequence of Ec IspE (P62615 whole entry): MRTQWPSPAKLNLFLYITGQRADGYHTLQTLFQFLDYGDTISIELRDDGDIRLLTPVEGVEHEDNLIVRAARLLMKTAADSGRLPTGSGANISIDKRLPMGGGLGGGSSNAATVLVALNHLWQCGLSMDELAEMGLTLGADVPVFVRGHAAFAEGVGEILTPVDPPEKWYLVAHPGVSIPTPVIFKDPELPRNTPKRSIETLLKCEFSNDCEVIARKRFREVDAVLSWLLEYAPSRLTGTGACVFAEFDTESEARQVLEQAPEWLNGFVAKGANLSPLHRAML

Bt IspE [15] = biological target: T2, Bt IspE (Burkholderia thailandensis, UniProt Q2T1B6); test: biochemical
T2 sequence (Q2T1B6 whole entry): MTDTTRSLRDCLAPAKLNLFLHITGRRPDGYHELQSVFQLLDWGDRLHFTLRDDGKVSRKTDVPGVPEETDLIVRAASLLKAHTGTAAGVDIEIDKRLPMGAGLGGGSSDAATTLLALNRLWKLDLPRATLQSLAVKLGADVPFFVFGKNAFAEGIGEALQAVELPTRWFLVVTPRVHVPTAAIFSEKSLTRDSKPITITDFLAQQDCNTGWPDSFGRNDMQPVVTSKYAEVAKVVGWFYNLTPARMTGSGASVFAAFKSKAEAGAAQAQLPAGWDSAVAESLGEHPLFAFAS

[16] = tested on: Burkholderia thailandensis; format: cell-based
Pseudomonas aeruginosa [17] = test: Antibacterial assay zone of inhibition Pa; format: cell-based
Micrococcus luteus [18] = test: Antibacterial assay zone of inhibition Ml; format: cell-based
Klebsiella pneumonia [19] = test: Antibacterial assay zone of inhibition Kp; format: cell-based
Escherichia coli [20] = test: Antibacterial assay zone of inhibition Ec; format: cell-based
Bacillus cereus [21] = test: Antibacterial assay zone of inhibition Bc; format: cell-based
Mycobacterium smegmatis [22] = test: Antibacterial assay zone of inhibition Ms; format: cell-based
Corynebacterium xerosis [23] = test: Antibacterial assay zone of inhibition Cx; format: cell-based
[24] = tested on: Corynebacterium pseudodiphtheriae; test: Antibacterial assay zone of inhibition Cp; format: cell-based
Bt IspE [25] = biological target: T2, Bt IspE; test: ITC binding study with Bt IspE
Experimental: All ITC experiments were performed under the same conditions as described herein. Compounds were dissolved in DMSO and brought to concentration with the dialysis buffer, with a maximum DMSO concentration of 10% by volume which was matched between ligand and enzyme, and centrifuged at 10,000 RPM for 10 minutes. The dialysis buffer was used for all sample dilutions to ensure buffers matching between the titrant and titrate, thus minimizing the excess heat due to buffer mismatch. ITC experiments were performed with IspE in the cell and ligand in the syringe. The initial injection volume was 2 μL (omitted) followed by 27 10 μL injections, every 240 seconds. Samples were run at 25° C., at pH 7.4, with a stirring speed of 307 RPM. Dilution runs were performed to allow determination of background heats caused by solution mismatch and instrument noise. Dilution runs were performed with ligand (at the same concentration as in the experiment run) in the syringe titrated into the dialysis buffer in the cell. Data were fit using OriginPro 7 with the ITC add-on by the manufacturer.

[26] = biological target: Arabidopsis thaliana IspD (Arabidopsis thaliana, UniProt P69834); details: read-out: AtIspD IC50, cited from earlier work
Sequence of Arabidopsis thaliana IspD (P69834 62-302): as the sequence (P69834 62-302) above

In the case of `c1ccc2[nH]c(-c3nnco3)cc2c1` [HGN-207, 2-(1H-indol-2-yl)-1,3,4-oxadiazole], the “MtIspD melting point change” value [1] is reported as 1.5 °C, the MtIspD melting temp [1] is reported as 49.5 °C and the “LeIspE melting point change” value [2] is reported as −1.25 °C. For the same compound, the LeIspE melting temp [2] was 48.25 °C, the “MpIspD thermal shift (positive shift)” value [3] was 0.8 °C and the Bleaching (lettuce seeds; 0.5 mM) was 2. For the same compound, the Germination (lettuce seeds; 0.5 mM) was 2, the “Root Dev.” value (lettuce seeds; 0.5 mM) was 0 and the Bleaching (lettuce seeds; 1.0 mM) was 3. The Germination (lettuce seeds; 1.0 mM) was 2, the “Root Dev.” value (lettuce seeds; 1.0 mM) was 0 and the IC50 (AtIspD) was over 1000 µM. The IC50 (LeIspE) was over 1000 µM, the IC50 (AtIspF) was over 1000 µM and the BT score [4] was 0. The MS score (Mycobacterium smegmatis [5]) was 0, the CX score (Corynebacterium xerosis [6]) was 0 and the CP score [7] was 0. For the same compound, the EC score (Escherichia coli [8]) was 0, the KP score (Klebsiella pneumonia [9]) was 0 and the ML score (Micrococcus luteus [10]) was 0. The BC score (Bacillus cereus [11]) was 0, the PA score (Pseudomonas aeruginosa [12]) was 0 and the “STD-NMR binding to MpIspD” value [13] was “bound”. For the same compound, the “STD-NMR binding to MaIspE” value [14] was “bound” and the melting point was 205 to 207 °C.

For `Clc1ccc(OCc2nnc(-c3nc4ccccc4s3)o2)c(Cl)c1` [HGN-333, 2-(benzo[d]thiazol-2-yl)-5-((2,4-dichlorophenoxy)methyl)-1,3,4-oxadiazole], the “MtIspD melting point change” value [1] was 1.3 °C, the MtIspD melting temp [1] was 49.3 °C and the “LeIspE melting point change” value [2] was −1.75 °C. For the same compound, the LeIspE melting temp [2] was 47.75 °C, the IC50 (Ec IspE) was 3 µM and the IC50 (Bt IspE [15]) was 28 µM. For the same compound, the Bleaching (lettuce seeds; 0.15 mM) was 0, the Germination (lettuce seeds; 0.15 mM) was 0 and the “Root Dev.” value (lettuce seeds; 0.15 mM) was 0. The Bleaching (lettuce seeds; 0.3 mM) was 0, the Germination (lettuce seeds; 0.3 mM) was 0 and the “Root Dev.” value (lettuce seeds; 0.3 mM) was 0. It also gave an IC50 (AtIspD) of 151 µM, an IC50 (LeIspE) of 31 µM and an IC50 (AtIspF) of 291 µM. The BT score [4] was 0, the MS score (Mycobacterium smegmatis [5]) was 0 and the CX score (Corynebacterium xerosis [6]) was 0. The CP score [7] was 0, the EC score (Escherichia coli [8]) was 0 and the KP score (Klebsiella pneumonia [9]) was 0. The ML score (Micrococcus luteus [10]) was 0, the BC score (Bacillus cereus [11]) was 0 and the “effectiveness against Pseudomonas aeruginosa” value (Pseudomonas aeruginosa [12]) was “moderately effective”. For the same compound, the PA score (Pseudomonas aeruginosa [12]) was 2, the “Antibacterial Bt zone of inhibition” value ([16]; 0.1 mM) was 0 millimeters and the “Antibacterial Bt zone of inhibition” value ([16]; 0.5 mM) was 15 millimeters. The “Antibacterial Bt zone of inhibition” value ([16]; 1 mM) was 19 millimeters, the “Antibacterial Pa zone of inhibition” value (Pseudomonas aeruginosa [17]; 0.1 mM) was 0 millimeters and the “Antibacterial Pa zone of inhibition” value (Pseudomonas aeruginosa [17]; 0.5 mM) was 18 millimeters. For the same compound, the “Antibacterial Pa zone of inhibition” value (Pseudomonas aeruginosa [17]; 1 mM) was 25 millimeters, the “Antibacterial Ml zone of inhibition” value (Micrococcus luteus [18]; 0.1 mM) was 0 millimeters and the “Antibacterial Ml zone of inhibition” value (Micrococcus luteus [18]; 0.5 mM) was 0 millimeters. For the same compound, the “Antibacterial Ml zone of inhibition” value (Micrococcus luteus [18]; 1 mM) was 0 millimeters, the “Antibacterial Kp zone of inhibition” value (Klebsiella pneumonia [19]; 0.1 mM) was 0 millimeters and the “Antibacterial Kp zone of inhibition” value (Klebsiella pneumonia [19]; 0.5 mM) was 0 millimeters. For the same compound, the “Antibacterial Kp zone of inhibition” value (Klebsiella pneumonia [19]; 1 mM) was 0 millimeters, the “Antibacterial Ec zone of inhibition” value (Escherichia coli [20]; 0.1 mM) was 0 millimeters and the “Antibacterial Ec zone of inhibition” value (Escherichia coli [20]; 0.5 mM) was 0 millimeters. The “Antibacterial Ec zone of inhibition” value (Escherichia coli [20]; 1 mM) was 0 millimeters, the “Antibacterial Bc zone of inhibition” value (Bacillus cereus [21]; 0.1 mM) was 0 millimeters and the “Antibacterial Bc zone of inhibition” value (Bacillus cereus [21]; 0.5 mM) was 0 millimeters. For the same compound, the “Antibacterial Bc zone of inhibition” value (Bacillus cereus [21]; 1 mM) was 12.5 millimeters, the “Antibacterial Ms zone of inhibition” value (Mycobacterium smegmatis [22]; 0.1 mM) was 0 millimeters and the “Antibacterial Ms zone of inhibition” value (Mycobacterium smegmatis [22]; 0.5 mM) was 0 millimeters. For the same compound, the “Antibacterial Ms zone of inhibition” value (Mycobacterium smegmatis [22]; 1 mM) was 0 millimeters, the “Antibacterial Cx zone of inhibition” value (Corynebacterium xerosis [23]; 0.1 mM) was 0 millimeters and the “Antibacterial Cx zone of inhibition” value (Corynebacterium xerosis [23]; 0.5 mM) was 0 millimeters. For the same compound, the “Antibacterial Cx zone of inhibition” value (Corynebacterium xerosis [23]; 1 mM) was 0 millimeters, the “Antibacterial Cp zone of inhibition” value ([24]; 0.1 mM) was 0 millimeters and the “Antibacterial Cp zone of inhibition” value ([24]; 0.5 mM) was 0 millimeters. The “Antibacterial Cp zone of inhibition” value ([24]; 1 mM) was 0 millimeters, the melting point was 163 to 165 °C and the “KD app (ITC, words)” value (Bt IspE [25]) was “in the nanomolar range”. The “binding stoichiometry (ITC)” value (Bt IspE [25]) was 0.903, the “ΔH° (ITC)” value (Bt IspE [25]) was -8.6 kcal/mol and the “−TΔS (ITC)” value (Bt IspE [25]) was -17.8 kcal/mol. The “entropic contribution −TΔS (ITC)” value (Bt IspE [25]; b178, unit not given) was −17.8.

For `Oc1c(Br)cc(Br)cc1-c1[nH]c(Br)c(Br)c1Br` [pentabromopseudilin], the IC50 ([26]; with 40 μM Cd2+ added) is listed as 1.4 ± 0.2 µM and the IC50 ([26]; without a metal added) is listed as 13 ± 2 µM.
